These results are taken from patent US4301313A, “Halogenated ethynyl biphenyls” (Eli-Lilly and Company, priority 1974, dated 1981).

“And” between values parts separate entries of the source, which are not always exact repeats. Equal entries are not always repeated.

Assay [1] in a line: analgesic activity, acetic acid-induced writhing. Type of assay: in vivo, mouse (albino male). As to conditions: mouse, p.o., dose reducing writhing frequency by 50%; 30, 90, 180 minutes after administration. The protocol:
Representative compounds were also evaluated for analgesic activity. The evaluation was conducted by using acetic acid-induced writhing in mice as the pain model. Clinically effective analgesis are effective when tested in this model: see Koster et al., "Acetic Acid for Analgesic Screening," 18 Fed. Proc. 412 (1959).
In a method similar to that reported by Koster et al., standard strain albino male mice weighing 20-22 grams were fasted overnight. The respective compound or vehicle (as control) was administered by gastric lavage (p.o.). Each compound was administered in an aqueous suspension of 1% methylcellulose in water. […] At 30, 90, and 180 minutes after administration, writhing was induced by the intraperitoneal administration of 55 mg./kg. of acetic acid (0.55%). Each treatment group consisted of 5 mice and separate groups were examined at each observation time. The total number of writhes for the treatment group were counted in a 10-minute observation period starting 5 minutes after the acetic acid administration. The treatment totals were compared to controls and a percent inhibition calculated as follows: [formula] […] An ED50, which represented the dose that would reduce the writhing frequency by 50%, was estimated from a dose-reponse curve of three or more points. A dose range was reported if only two points were availale for the dose response curve and they bracketed the 50% level. If data was available at 100 mg./kg., only, then the estimated ED50 was reported simply as less than 100 (<100).
Background: In writhing tests, fewer writhes than in controls are read as antinociception.

Assay [2] is described as follows: carrageenin-induced hind paw inflammation. The class given is in vivo. As to conditions: Rattus norvegicus. The method, then: (§1) Representative compounds were also evaluated for anti-inflammatory activity in the test method described by C. A. Winter at 111 Proc. Soc. Exp. Biol. Med., 544 (1962). In this method, inflammation is created by injecting carrageenin into the hind paw of rats. Test compounds are administered prior to injection to determine percent inhibition of the subsequent inflammation, in comparison with control animals.
Background: The carrageenan paw model is a standard test of acute inflammation.

The nature of assay [3]: ultraviolet-induced erythema blocking test, oral (modified Winder method). Type of assay: in vivo, guinea pig (male albino). As to conditions: Cavia porcellus, guinea pig, weighted scores 1.0-2.5 h after UV, dose which provides 50% inhibition. The protocol:
The compounds of the present invention were evaluated for anti-inflammatoryactivity by the ultraviolet-induced erythema blocking test. The test procedures were a modification of the Winder method (Winder, C. V.; Wax, J.; Burr, V.; Been, M.; and Posiere, C. E.: A Study of Pharmacological Influences on Ultraviolet Erythema in Guinea Pigs. Arch. Int. Pharmacodyn. 116: 261, 1958). Male albino guinea pigs weighing 240-300 gm. were used. The hair on the back was clipped and chemically depilated 15-18 hours before each experiment. The animals were fasted overnight, and on the day of the experiment, were randomized and placed in clear plastic partitioned holders 10×20 cm. wide and 15 cm. high.
The compounds to be tested were suspended in 1% methyl cellulose in water, utilizing a tissue homogenizer. The suspensions were administered orally in a volume of 2.0 ml./kg. of body weight. Control animals received an equal amount of the vehicle.
The source of ultraviolet light was a Hanovia lamp (Kromayer-Model 10). A notebook reinforcement ring was placed upon the lens of the lamp to provide an area of contrast for grading purposes. The lens was then placed in contact with the skin of the guinea pig's back. Exposure time to UV was for a period of 4 seconds. Beginning one hour after exposure and thereafter at half-hour intervals for another 11/2 hours, the degree of resulting erythema was graded by an arbitrary scoring system based upon the degree of contrast and redness formed. Anti-inflammatory agents delay the development of the erythema and have their greatest effect at the initial grading periods. The scores were, therefore, weighted by factors of 4, 3, 2, and 1 at the 1.0, 1.5, 2.0, and 2.5 hour scoring times, respectively. The erythema was graded as follows:
Total scores from each treatment group of four guinea pigs were compared to the scores of the control group. The percent inhibition was calculated as follows: [formula] In the case of compounds showing inhibition, retesting was carried out at a plurality of doses to enable calculation of an ED50 for each such compound. "ED50 " designates that dose which provides 50% inhibition. Calculation of the ED50 was either by a standard linear regression method or by estimation from a dose-response curve of three or more points. The compounds so tested and their ED50 s were as follows: […]

Assay [4] is described as follows: adjuvant-induced arthritis test (paw volume). Type of assay: in vivo, rat (male albino). As to conditions: rat, oral.
Assay [5] can be described thus: carrageenin induced test, compound administered about 20 hours prior. The class given is in vivo. As to conditions: rat, dose 10 (unit not given), about 20 hours prior to test. The protocol: as §1
Each of 4-biphenylylacetylene and (4-(2-fluorophenyl)phenyl)acetylene was evaluated again in the carrageenin induced test method reported in Examples 60-80. However, in these tests, the compound was administered about 20 hours prior to the test procedures.

Where [6] appears, read: dose not printed (line below dose 25).

On to `C#Cc1ccc(-c2ccccc2)c(Cl)c1` [(3-chloro-4-phenylphenyl)acetylene, (3-Chloro-4-phenylphenyl)acetylene], for which the “Estimated ED50” value in assay [1] was 30 mg/kg. Moreover, in assay [2] (0.3 mg./kg.), the inhibition in vivo – broadly, the change of the read-out against control, counted positive when it falls – at 0.3 mg/kg turned out to be 23%. The same compound came in with an inhibition in vivo at 3 mg/kg in assay [2] of 41%. Besides, in assay [2], at 10 mg/kg the inhibition in vivo was 62%. Moreover, in assay [3], the ED50 (usually the midpoint of the dose-response relation) came to 0.033 mg/kg. Moreover, the “Percent Inhibition of Volume Increase, Day 7” value in assay [4] (dose 0.1 (unit not given)) is on record as 21%; in assay [4] (dose 0.3 (unit not given)) it was 56%; in assay [4] (dose 1 (unit not given)), 34%; in assay [4] (dose 3 (unit not given)), 30%. Moreover, the “Percent Inhibition of Volume Increase, Day 14” value in assay [4] (dose 0.1 (unit not given)) was 36%; in assay [4] (dose 0.3 (unit not given)) it was 50%; in assay [4] (dose 1 (unit not given)), 41%; in assay [4] (dose 3 (unit not given)) it was 45%.

With `C#Cc1ccc(-c2ccccc2)cc1` [4-biphenylylacetylene, 4-Biphenylylacetylene], the “Estimated ED50” value in assay [1] is 50 mg/kg. Besides, the inhibition in vivo at 0.5 mg/kg in assay [2] (0.5 mg./kg.) is 0%. Further, testing at 3 mg/kg in assay [2] gave an inhibition in vivo of 36%. Further, in assay [2] (5 mg./kg.), the inhibition in vivo at 5 mg/kg stood at 37%. Moreover, at 10 mg/kg the inhibition in vivo in assay [2] was 42%. In assay [2] (20 mg./kg.), this compound showed an inhibition in vivo at 20 mg/kg of 45%. This compound had an inhibition in vivo at 50 mg/kg in assay [2] (50 mg./kg.) of 41%. Further, the median effective dose (ED50) in assay [3] turned out to be 0.9 mg/kg. Moreover, the % Inhibition (as a rule, the percentage by which the read-out fell short of the control) in assay [5] is 44% and 28%. The “Percent Inhibition of Volume Increase, Day 7” value in assay [4] (dose 0.3 (unit not given)) was 15%; in assay [4] (dose 1 (unit not given)), 0%; in assay [4] (dose 3 (unit not given)), 14%; in assay [4] (dose 25 (unit not given)) it was 29%; in assay [4] (setting [6]) it was 37%. Further, the “Percent Inhibition of Volume Increase, Day 14” value was 0% in assay [4] (dose 0.3 (unit not given)); 0% in assay [4] (dose 1 (unit not given)); 7% in assay [4] (dose 3 (unit not given)); 37% in assay [4] (dose 25 (unit not given)); 23% in assay [4] (setting [6]).
